Read-outs that look alike come from different tables or passages of the source.

The test system of series [1] is A375 melanoma cells. As to the kind of experiment: Transwell cell migration assay, A375 melanoma cells. Type of series: cell-based. Particulars: Homo sapiens, A-375. The protocol:
A375 melanoma cells (CRL-1619, American Type Culture Collection (“ATCC”), Manassas Va., USA)) grown in RPMI medium supplement with 10% FBS were starved for 24 hours in FBS free medium. After starvation of 24 hr, 5×10^4 cells in FBS free medium were placed in the upper chamber of 24-well, Transwell apparatus (CORNING TRANS WELL® polycarbonate membrane inserts, 5 μm pore size) with solvent (DMSO/PEG400) or different concentrations of Compound 1 (PRT7000467), Compound 2 (PRT7041128), or Compound 3 (PRT7081582). Medium containing FBS and compounds was added to the bottom chamber. Twenty-four hours later the melanoma cells from the upper chamber were removed with a cotton swab. Cells that migrated to the lower side of the membrane were stained with Calcein-AM (Sigma) and images were taken with fluorescence microscope. The number of migrating cells was quantified by ImageJ software and the IC50 values were calculated using Prism software (Graphpad) (FIG. 1A,1E).
A375 (melanoma) (CRL-1619, ATCC, Manassas, Va., USA), A431 (melanoma) (CRL-2592, ATCC, Manassas, Va., USA), A2058 (melanoma) (CRL-11147, ATCC, Manassas, Va., USA), MDA-MB-231 (breast) (HTB-26, ATCC, Manassas, Va., USA), LS175T (colon) (ATCC, Manassas, Va., USA), HT29 (colon) (HTB-38, ATCC, Manassas, Va., USA), PC3 (prostate) (CRL-1435, ATCC, Manassas, Va., USA), Panc03.27 (pancreatic) (ATCC, Manassas, Va., USA), 4T1 (breast-mouse) (CRL-2539, ATCC, Manassas. Va., USA), D122 (lung-mouse) (the Weizmann Institute of Science), D122-luc (lung-mouse) (the Weizmann Institute of Science), and B16 F10.9 (melanoma-mouse) cells (Caliper Life Sciences, Hopkinton Mass.), were grown in RPMI medium supplemented with 10% FBS. HUVEC cells were grown in Endothelial Cell Growth Medium 2 and THP1 cells were grown in RPMI medium supplemented with 10% FBS, 2 mM L-Glutamine, 1.5 g/L sodium bicarbonate, 10 mM Hepes, 1 mM sodium pyruvate, 4.5 g/L glucose and 0.05 mM 2-mercaptoethanol. The cells were starved for 24 hours in medium without FBS. At the end of the starvation, 5×10^4 cells in medium without FBS were placed in the upper chamber of 24-well, Transwell apparatus (CORNING TRANSWELL® polycarbonate membrane inserts, 5 μm pore size for […] and THP1 cells and 8 μm pore size for all the other cells) with solvent (DMSO/PEG400) or different concentrations of compound 1 (PRT7000467). Medium with FBS and compounds was added to the bottom chamber. Twenty-four hours later the cells from the upper chamber were removed with a cotton swab. Cells that migrated to the lower side of the membrane were stained with Calcein-AM (Sigma) and images were taken with a fluorescence microscope. The number of migrating cells was quantified by ImageJ software and the IC50 values were calculated using Prism software (Graphpad).

The test system of series [2] is A375 cells. As to the kind of experiment: Cell viability, WST-1 reagent, A375 cells grown in two-dimension. It is filed as cell-based. As to conditions: WST-1, 72 h post treatment. The protocol: Compound 1 (PRT7000467), Compound 2 (PRT7041128), and Compound 3 (PRT7081582) are not toxic to cells grown in two-dimension. A375 cells were cultured with RPMI and 10% FBS. The cells were treated with different concentrations of Compound 1 (PRT7000467) and Compound 2 (PRT7041128), then the viability of the cells was determined seventy-two hours post treatment using WST-1 reagent (Roche) (FIG. 1B)
Background: Formazan colour is commonly taken as a measure of viable cells.

In series [3] the test system is B16F10 murine melanoma cells. As to the kind of experiment: Anti-metastasis assay: lung metastases in mice implanted with B16F10 melanoma cells. Type of series: in vivo, female B6D2F1 mice. As to conditions: i.p., start D3, foci count on D17 vs comparator mice; dose regimen of the value not stated (FIGS. 4A and B). The protocol:
Compound 1 and Compound 3 were tested for efficacy in inhibiting lung metastases in female B6D2F 1 mice implanted with B16F10 murine melanoma cells. Tumors were initiated on Day 1 (D1) by intravenously (i.v.) injecting 1×10^5 B16F10 tumor cells into the tail vein of test mice. Mice were sorted into three vehicle-treated control groups (n=20 or 10/group) and nine treatment groups (n=10/group). Compound 1 and Compound 3 monotherapies were administered at 10 mg/kg (2 mg/mL at 5 mL/kg) and at 20 mg/kg (4 mg/mL at 5 mL/kg), intraperitoneally (i.p.), daily for fourteen doses starting on D3 (qd×14 (start D3)). Compound 1 and Compound 3 monotherapies also were administered at 20 mg/kg (4 mg/mL at 5 mL/kg), i.p., twice daily for twenty-nine doses starting on D3 (bid×14.5 (start D3)). […]
The study endpoint was defined as 100 metastases per lung set in animals periodically sampled from the saline control group. […] All animals remaining on study were euthanized, their metastases were counted, and the mean±SEM foci count for each group was calculated. Efficacy was determined by an analysis of percent inhibition, the percent change in the mean foci count on D17 for treated versus comparator mice, and by statistical assessment of differences in foci counts between treated and comparator mice.

Setting [4] is: A375 melanoma cells, Transwell 5 μm pore, 24 h, Example 3 (FIGS. 1A, 1E), read-out: IC50 in the migration assay.

`Cc1cc(C)nc(NS(=O)(=O)c2ccc(NC(=O)/C(=C\c3cccs3)NC(=O)c3cccs3)cc2)n1` [Compound 1]: the IC50 worked out at 1.7 µM in series [1] (A375, Melanoma, reexamined, Table 1, 6 repeats, read-out: IC50 (μM), Transwell migration) and 5.7 µM in series [1] (setting [4]). Moreover, in series [2], the “toxicity to cells grown in two-dimension” value is “not toxic”. In series [3], the “efficacy in inhibiting lung metastases (percent inhibition of mean foci count)” value is on record as 51%.
On to `Cc1cc(S(=O)(=O)Nc2ncccn2)ccc1NC(=O)/C(=C\c1cccs1)NC(=O)c1cccs1` [Compound 3], for which, in series [1] (setting [4]), the IC50 worked out at 1.41 µM. Further, in series [2], the “toxicity to cells grown in two-dimension” value is reported as “not toxic”. In series [3], the “efficacy in inhibiting lung metastases (percent inhibition of mean foci count)” value came out at 45%.

Values taken from patent US20110130374A1, “Small Pyrimidine Derivatives and Methods of Use Thereof” (BIOSEARCH(2007) LTD., priority 2009, published 2011).
